Source: patent publication US20050020613A1, “Sustained release opioid formulations and method of use” (priority 2002, published 2005)

Format: in vivo
Conditions: dose equianalgesic to a 15 mg dose of hydrocodone

Question: With COc1ccc2c3c1OC1C(=O)CC[C@H]4[C@@H](C2)N(C)CC[C@]314 (stereo partly shown) [Hydrocodone, 4,5-epoxy-3-methoxy-17-methylmorphinan-6-one] as the compound, how does the “Equianalgesic Doses of Opioids: Calculated Dose” value read?
Answer: 15.0 mg

Question: With CN1CC[C@]23CCCC[C@H]2[C@H]1Cc1ccc(O)cc13 [Levorphanol] as the compound, how does the “Equianalgesic Doses of Opioids: Calculated Dose” value read?
Answer: 1.8 mg

Question: For CCC(=O)C(CC(C)N(C)C)(c1ccccc1)c1ccccc1 (stereo not shown) [Methadone], which “Equianalgesic Doses of Opioids: Calculated Dose” value is on record?
Answer: 9.0 mg

Question: For COc1ccc2c3c1OC1C(=O)CC[C@@]4(O)[C@@H](C2)N(C)CC[C@]314 (stereo partly shown) [Oxycodone, 4,5-epoxy-14-hydroxy-3-methoxy-17-methylmorphinan-6-one], which “Equianalgesic Doses of Opioids: Calculated Dose” value is on record?
Answer: 13.5 mg

Question: Which “Equianalgesic Doses of Opioids: Calculated Dose” value does the source give for Meperidine here?
Answer: 135.0 mg

Question: Which “Equianalgesic Doses of Opioids: Calculated Dose” value does the source give for COc1ccc2c3c1O[C@H]1[C@@H](O)C=C[C@H]4[C@@H](C2)N(C)CC[C@@]341 [Codeine] here?
Answer: 90.0 mg

Same assay, conditions: in vivo

Question: For CN1CC[C@]23c4c5ccc(O)c4O[C@H]2[C@@H](O)C=C[C@H]3[C@H]1C5 [Morphine], which “Equianalgesic Doses of Opioids: Calculated Dose” value is on record?
Answer: 27.0 mg
